Measurements from patent publication US6630516B2, “Methods and compositions for preventing and treating chronological aging in human skin” (The Regents of the University of Michigan, priority 1997, dated 2003).
“Also recorded” adds a separate entry of the source.

Key:
fibroblasts = test: Ex vivo cell growth from biopsies after 7-day in vivo treatment (fibroblasts); design: species or system human; settings: one application of 1% retinol in vivo, occluded seven days, biopsy cells cultured ex vivo; age over 80; p<0.05
Experimental: (§1) That is, an elderly volunteer was treated with retinol (one application of 1% retinol, occluded for seven days), the treated area was biopsied, and the keratinocytes and fibroblasts from the biopsy were cultured ex vivo. […] In particular, keratinocytes growth increased by about 30% (12A) while fibroblast growth increased by about 200% (12B), with p<0.05 for both. Accordingly, the topical application of a retinoid to aged skin would be expected to increase the number of keratinocytes and/or the number of fibroblasts in the skin.
(§2) Ex vivo cell growth. Biopsies were minced into small fragments (approximately 15 fragments per tissue piece) and the tissue fragments transferred to plastic cell culture flasks. Culture medium consisted of Dulbecco's Modified Minimal Essential Medium of Eagle with Earle's salts, non-essential amino acids and 10% fetal bovine serum. Tissue fragments were incubated at 37° C. and 5% CO2/95% air for up to one month. Each fragment was scored for whether keratinocytes and/or fibroblasts grew out of the tissue and from this, the percentage of fragments from which keratinocytes and fibroblasts were isolated was determined according to the method of Varani, J., et al., J Clin. Invest., 96, 1747-1756 (1994).

Type I procollagen = test: Stained sectioned biopsies of elderly skin: Type I procollagen; assay type: in vivo, human; settings: seven days after a single application of 1% retinol; 80+ volunteers; stained sections; vs vehicle
From the text: (§3) Additional sectioned and stained biopsies from our oldest (80+) group of volunteers after retinoid treatment are depicted in FIG. 18. As noted above, AP-1 induces MMP formation and is formed by the heterodimerization of c-Jun and c-Fos proteins. […] Thus, our invention appears to inhibit c-Jun formation and thereby inhibit the formation of AP-1 and the resulting MMPs. […] (The apparently lower density of procollagen in the dermis in FIG. 18C is an artifact of the section made; there is clearly a higher level of staining in the retinol treated section than in the vehicle treated section.)
(§4) In another aspect, this invention is directed to improving, or stimulating, the synthesis of Types I and III procollagen in an elderly person's skin. We have found there is a significant reduction in Types I and III procollagen synthesis in sun-protected skin of many (at least 50% of) aged individuals and that this condition can be treated by the topical application of a retinoid. Procollagen is a protein synthesized by skin fibroblast cells and then secreted into the extracellular medium, where it is converted by naturally occurring enzymes into collagen. Reduced procollagen synthesis in an elderly person's skin is manifest as a reduced presence of procollagen protein in both the upper dermis (extracellular) and in fibroblasts throughout the dermis, and can be determined (e.g.) by immunohistochemistry.

MMP-2 = test: Gelatin zymography in biopsies of treated elderly skin (MMP-2); assay type: in vivo, human; settings: seven days after a single retinol treatment, vs vehicle only
From the text: (§5) We also used the biopsies from the aforementioned volunteers to determine the effect of the same retinoid treatment on the relative activity of the same collagenase enzymes studied for the results shown in FIG. 4. FIGS. 14A, 14B, and 14C depict the average MMP activity levels (for collagenase MMP-1 and gelatinases MMP-9 and MMP-2, respectively) after treatment of elderly individuals with retinol. […] (In FIGS. 14A-14C, the number of subjects for each figure was 10; “*” indicates […] versus the 18-29 year old values, “**” indicates p<0.1, and “***” indicates p<0.001.)
(§6) Gelatin zymography (Varani et al., op. cit.) was used to assess MMP-2 (72-kD gelatinase; gelatinase A) and MMP9 (92-kD gelatinase; gelatinase B) activity. Tissue extracts were electrophoresed in an 8.5% SDS-polyacrylamide gel containing 1 mg/ml of gelatin. After electrophoresis, the SDS was removed by three sequential washes in 1% Triton X-100. The first two washes were for 20 minutes each and the last was overnight. Quantitation of hydrolysis zone width was done by laser densitometry.

c-Jun protein = test: Stained sectioned biopsies of elderly skin: c-Jun protein; assay type: in vivo, human; settings: seven days after a single application of 1% retinol; 80+ volunteers; stained sections
From the text: As noted above, AP-1 induces MMP formation and is formed by the heterodimerization of c-Jun and c-Fos proteins.

keratinocytes = test: Ex vivo cell growth from biopsies after 7-day in vivo treatment (keratinocytes); design: species or system human; settings: one application of 1% retinol in vivo, occluded seven days, biopsy cells cultured ex vivo; age over 80; p<0.05
Experimental: as §1, §2

procollagen protein = test: Procollagen protein levels in chronologically-aged skin after treatment; assay type: in vivo, human; settings: single application of 1% retinol to chronologically-aged skin, covered with air-permeable adhesive bandage, examined seven days later
From the text: as §4
It has been found unexpectedly that topical treatment of elderly, chronoaged skin with a retinoid results in a restitution of intracellular procollagen protein levels similar to those observed in young individuals (such as those aged 40 and younger). […] It would be more preferable for elderly persons to apply the retinoid once or twice daily to maintain a therapeutic regimen, although the agent could be applied on a less frequent but preferably regular basis (e.g., every other day, or once weekly). […]

Type III procollagen = test: Stained sectioned biopsies of elderly skin: Type III procollagen; assay type: in vivo, human; settings: seven days after a single application of 1% retinol; 80+ volunteers; stained sections; vs vehicle
From the text: as §3, §4

MMP-1 = test: Matrix metalloproteinase assay (collagenolytic activity) in biopsies of treated elderly skin; assay type: in vivo, human; settings: seven days after a single retinol treatment, vs vehicle only, p<0.001
From the text: as §5
Matrix metalloproteinase assays. Tissue pieces were frozen in liquid nitrogen immediately after biopsy, homogenized in 20 mM Tris HCl (pH 7.6) plus 5 mM CaCl2, and centrifuged at 3000×g for 10 minutes to remove particulates. Ability to release soluble radioactive fragments from 3H-labeled fibrillar Type I collagen (described by Fisher, G. J., et al., Nature, 379, 335-339 (1996) and Hu, C-L, et al., Analytic. Biochem, 88, 638-643 (1978)) was used as a measure of collagenolytic activity. […] Subsequently, 0.2 μCi of collagen substrate (NEN-DuPont, Boston, Mass.) was incubated for 24 hours with 50 μl of tissue extract. […] Radioactivity remaining in the supernatant fluid was then measured and from this, the percentage of substrate hydrolzyed was determined.

ERK = ERK activity assay in biopsies of treated elderly skin; assay type: in vivo, human; settings: 1% retinol applied to sun-protected skin, occluded, examined seven days later; three 80+ year old volunteers; control normalized to one
From the text: Using the same technique as previously described for retinoid treatment (1% retinol applied to sun-protected skin, occluded, and examined seven days later), we treated and then tested three of our 80+ year old volunteers to determine the effect of retinoid treatment on ERK activity. […] ERK phosphorylation and activity assays. ERK1 and ERK2 in skin supernatants were immunoprecipitated with antibodies from Santa Cruz Biotechnology Inc. and assayed for enzymatic activity using myelin basic protein as substrate, as described by J. D. Weber et al. (“Sustained activation of extracellular-signal regulated kinase I (ERK1) is required for the continued expression of cyclin D1 in G1 phase,” Biochem. J., 326:61-68 (1997)). Total and phosphorylated ERK1 and ERK2 in supernatants were determined by Western analysis, using antibodies from New England Biolabs Inc. (Beverly, Mass.)

[1] = tested on: Type III procollagen α1(III) mRNA; test: In vivo induction of Type III procollagen mRNA in elderly skin; design: species or system human; settings: 1% retinol cream applied once to sun-protected skin, covered with a patch seven days; seven 80+ year old individuals
Experimental: Seven 80+ year old individuals were treated clinically with 1% retinol cream, applied once to sun-protected skin, covered with a patch, and left undisturbed for seven days.
Northern analysis of RNA. Total RNA (e.g., for c-Jun, procollagen α1(III)) was isolated from skin samples by guanidinium hydrochloride lysis and ultracentrifugation (as described by G. J. Fisher et al., “Cellular, immunologic and biochemical characterization of topical retinoic acid-treated human skin,” J Investig. Dermatol, 96:699-707 (1991)). Northern analysis of total RNA (40 μg/lane) with randomly primed ^32P labelled cDNA probes for the particular mRNA to be determined were performed as described by G. J. Fisher et al. (in “All trains retinoic acid induces cellular retinol-binding protein in human skin in vivo,” J Investig. Dermatol, 105:80-86 (1995)). Type III procollagen mRNA was determined using […].

[2] = tested on: sun-protected skin of subjects at least 80 years old; test: Histology and morphometry of elderly skin biopsied seven days after one topical treatment; assay type: in vivo, human
From the text: To investigate the treatment of chronologically-aged skin, 17 subjects having an age of at least 80 years old were given one topical treatment with 1% retinol or with vehicle alone, the test area was occluded for seven days, and the test area was then biopsied. The vehicle was composed of a mixture of ethanol and polyethylene glycol in a 70:30 volumetric ratio. In comparing vehicle-treated skin with untreated skin from individuals of the same elderly age range, there were no statistically significant differences in any of the parameters described with reference to FIG. 2, namely the number of fibroblasts and keratinocytes, the epidermal thickness, and undesirable dermal connective tissue features. […] Due to the short duration of the retinoid (retinol) treatment, little change in the number of detrimental dermal connective tissue features (11B) was apparent.
Histology and morphometry. Replicate 4-mm punch biopsies were obtained from buttock skin of each individual. Formalin-fixed tissue pieces were sectioned, stained with hematoxylin and eosin, randomized and blinded. The sections were examined using an Olympus BX40 microscope in conjunction with a Sony DCX-151 high-resolution camera. Blocked areas 200 μm on a side were isolated using NIH Imager software and epidermal height was assessed at four sites (25 μm apart) in each of two such areas. The same two blocked areas were used for epithelial cell counts. The number of interstitial cell nuclei (i.e., nuclei below the dermo-epidermal juncture, not associated with capillaries) over the entire histological section was determined as a measure of dermal cellularity. The same blinded sections were scored for connective tissue fiber spacing, thickness, degree of disorganization and depth of disorganization, using a scale of 1-9 for each parameter.

MMP-9 = test: Gelatin zymography in biopsies of treated elderly skin (MMP-9); assay type: in vivo, human; settings: seven days after a single retinol treatment, vs vehicle only, p<0.001
From the text: as §5, §6

[3] = 1% retinol, one topical application, occluded seven days, vs vehicle-treated skin, age 80+
[4] = one application of retinol, 7 days, sun-protected skin of an individual, vs vehicle-treated skin

For `CC1=C(/C=C/C(C)=C/C=C/C(C)=C/CO)C(C)(C)CCC1` [retinol], the “increase in ex vivo fibroblast growth” value (fibroblasts) was “about 200%”, the “level of Type I procollagen in skin” value (Type I procollagen) was “increased; also recorded: enhanced” and the “change in the activity of MMP-2” value (MMP-2) was “no significant change”. The “c-Jun level in elderly skin compared with vehicle-treated skin” value (c-Jun protein) was “decreased; also recorded: significantly reduced (almost absent)”, the “increase in ex vivo keratinocytes growth” value (keratinocytes) was “about 30%” and the procollagen protein levels (procollagen protein) was “comparable to those found in sun-protected skin of significantly younger individuals”. The “level of Type III procollagen in skin” value (Type III procollagen) was “increased; also recorded: enhanced”, the “decrease in MMP-1 activity” value (MMP-1) was 48% and the “ERK activity in vivo compared with vehicle-treated area” value (ERK) was “more than doubled”. The “increase in Type III procollagen mRNA from control (vehicle-treated) areas” value [1] was “about 2.5 times”, the “mean increase in number of keratinocytes per section” value ([2]; 1% retinol, one topical application, occluded seven days, vs vehicle-treated skin of same individuals, age 80+, p<0.001) was 273% and the “mean increase in number of fibroblasts per section” value ([2]; 1% retinol, one topical application, occluded seven days, vs vehicle-treated skin of same individuals, age 80+, p<0.05) was 30%. For the same molecule, the epidermal thickness [2, 3] was “increased the epidermal thickness substantially; also recorded: thickened”, the “number of detrimental dermal connective tissue features” value [2, 3] was “little change” and the “appearance of dermal collagen” value [2, 4] was “denser and more regular”. The “interfacial surface area between epidermis and dermis (rete pegs and dermal papillae)” value [2, 4] was “increased” and the “decrease in MMP-9 activity” value (MMP-9) was 39%.
